Patent US20100311714A1, “1H-IMIDAZO[4,5-c]QUINOLINONE COMPOUNDS” (priority 2009, published 2010)
pIC50: −log10 of the molar value.

Legend:
[1] = test system: PKB Ser473 phosphorylation in Rat1-myr-HA-p110 delta cells; experiment: Reverse protein array, PKB Ser473 phosphorylation in Rat1-myr-HA-p110 delta cells; assay type: cell-based; settings: Rattus norvegicus, 0.5 h, 30 minutes compound incubation, read-out: p-PKB/IC50_delta
[2] = test system: PKB Ser473 phosphorylation in Rat1-myr-HA-p110 alpha cells; experiment: Reverse protein array, PKB Ser473 phosphorylation in Rat1-myr-HA-p110 alpha cells; assay type: cell-based; settings: Rattus norvegicus, 0.5 h, 30 minutes compound incubation, read-out: p-PKB/IC50_alpha

SMILES	pIC50 [1]	pIC50 [2]
Cc1cccnc1-n1c(=O)n(C)c2cnc3ccc(-c4cnc(N)c(C(F)(F)F)c4)cc3c21 [Example 3.12, 8-(6-Amino-5-trifluoromethyl-pyridin-3-yl)-3-methyl-1-(3-methyl-pyridin-2-yl)-1,3-dihydro-imidazo[4,5-c]quinolin-2-one]	7.12	7.86
Cc1nc(F)ccc1-n1c(=O)n(C)c2cnc3ccc(-c4cnc(N)c(C(F)(F)F)c4)cc3c21 [Example 7.1, 8-(6-Amino-5-trifluoromethyl-pyridin-3-yl)-1-(6-fluoro-2-methyl-pyridin-3-yl)-3-methyl-1,3-dihydro-imidazo[4,5-c]quinolin-2-one]	7.61	7.93
Cn1c(=O)n(-c2cccnc2)c2c3cc(-c4ccc(CO)nc4)ccc3ncc21 [Example 5.1, 8-(6-Hydroxymethyl-pyridin-3-yl)-3-methyl-1-pyridin-3-yl-1,3-dihydro-imidazo[4,5-c]quinolin-2-one]	6.44	6.78
CCOc1ccc(-c2ccc3ncc4c(c3c2)n(-c2cccnc2F)c(=O)n4C)cn1 [Example 6.1, 8-(6-Ethoxy-pyridin-3-yl)-1-(2-fluoro-pyridin-3-yl)-3-methyl-1,3-dihydro-imidazo[4,5-c]quinolin-2-one]	6.84	7.50
CN(C)c1ccc(-c2ccc3ncc4c(c3c2)n(-c2cccnc2)c(=O)n4C)cn1 [Example 5.3, 8-(6-Dimethylamino-pyridin-3-yl)-3-methyl-1-pyridin-3-yl-1,3-dihydro-imidazo[4,5-c]quinolin-2-one]	6.60	7.04
Cc1ncccc1-n1c(=O)n(C)c2cnc3ccc(-c4ccc(CO)nc4)cc3c21 [Example 2.6, 8-(6-Hydroxymethyl-pyridin-3-yl)-3-methyl-1-(2-methyl-pyridin-3-yl)-1,3-dihydro-imidazo[4,5-c]quinolin-2-one]	7.13	7.41
CNc1ncc(-c2ccc3ncc4c(c3c2)n(-c2ccc(N3CCC(O)C3)nc2C)c(=O)n4C)cn1 (stereo not drawn) [Example 27.2, 1-[6-(3-Hydroxy-pyrrolidin-1-yl)-2-methyl-pyridin-3-yl]-3-methyl-8-(2-methylamino-pyrimidin-5-yl)-1,3-dihydro-imidazo[4,5-c]quinolin-2-one]	7.68	7.95
CNc1ncc(-c2ccc3ncc4c(c3c2)n(-c2ccc(N3CC(O)C3)nc2C)c(=O)n4C)cc1C(F)(F)F [Example 29.4, 1-[6-(3-Hydroxy-azetidin-1-yl)-2-methyl-pyridin-3-yl]-3-methyl-8-(6-methylamino-5-trifluoromethyl-pyridin-3-yl)-1,3-dihydro-imidazo[4,5-c]quinolin-2-one]	7.74	8.10
COc1cc(-c2ccc3ncc4c(c3c2)n(-c2ccc(N3CC(O)C3)nc2C)c(=O)n4C)cnc1CO [Example 29.5, 1-[6-(3-Hydroxy-azetidin-1-yl)-2-methyl-pyridin-3-yl]-8-(6-hydroxymethyl-5-methoxy-pyridin-3-yl)-3-methyl-1,3-dihydro-imidazo[4,5-c]quinolin-2-one]	6.40	6.70
CCNc1cc(-c2ccc3ncc4c(c3c2)n(-c2cccnc2C)c(=O)n4C)cnc1CO [Example 2.31, 8-(5-Ethylamino-6-hydroxymethyl-pyridin-3-yl)-3-methyl-1-(2-methyl-pyridin-3-yl)-1,3-dihydro-imidazo[4,5-c]quinolin-2-one]	7.50	> 8.34
CNc1cncc(-c2ccc3ncc4c(c3c2)n(-c2cccnc2C)c(=O)n4C)c1 [Example 2.26, 3-Methyl-8-(5-methylamino-pyridin-3-yl)-1-(2-methyl-pyridin-3-yl)-1,3-dihydro-imidazo[4,5-c]quinolin-2-one]	7.17	8.19
COCc1ncc(-c2ccc3ncc4c(c3c2)n(-c2ccc(N3CCC3)nc2C)c(=O)n4C)cc1OC(C)C [Example 23.2, 1-(6-Azetidin-1-yl-2-methyl-pyridin-3-yl)-8-(5-isopropoxy-6-methoxymethyl-pyridin-3-yl)-3-methyl-1,3-dihydro-imidazo[4,5-c]quinolin-2-one]	6.91	7.61
Cc1nc(N2CCC2)ccc1-n1c(=O)n(C)c2cnc3ccc(-c4cncc(OC(C)C)c4)cc3c21 [Example 23.9, 1-(6-Azetidin-1-yl-2-methyl-pyridin-3-yl)-8-(5-isopropoxy-pyridin-3-yl)-3-methyl-1,3-dihydro-imidazo[4,5-c]quinolin-2-one]	7.10	7.58
CCOc1cc(-c2ccc3ncc4c(c3c2)n(-c2ccc(F)nc2C)c(=O)n4C)cnc1COC [Example 7.5, 8-(5-Ethoxy-6-methoxymethyl-pyridin-3-yl)-1-(6-fluoro-2-methyl-pyridin-3-yl)-3-methyl-1,3-dihydro-imidazo[4,5-c]quinolin-2-one]	6.74	7.50
CNc1ccc(-c2ccc3ncc4c(c3c2)n(-c2ccc(N3CCC3)nc2C)c(=O)n4C)cn1 [Example 23.4, 1-(6-Azetidin-1-yl-2-methyl-pyridin-3-yl)-3-methyl-8-(6-methylamino-pyridin-3-yl)-1,3-dihydro-imidazo[4,5-c]quinolin-2-one]	7.62	8.24
CNc1ncc(-c2ccc3ncc4c(c3c2)n(-c2ncccc2C)c(=O)n4C)cn1 [Example 3.4, 3-Methyl-8-(2-methylamino-pyrimidin-5-yl)-1-(3-methyl-pyridin-2-yl)-1,3-dihydro-imidazo[4,5-c]quinolin-2-one]	6.13	6.65
Cc1nc(C(F)(F)F)ccc1-n1c(=O)n(C)c2cnc3ccc(-c4cncc(C(C)(C)O)c4)cc3c21 [Example 33.1, 8-[5-(1-Hydroxy-1-methyl-ethyl)-pyridin-3-yl]-3-methyl-1-(2-methyl-6-trifluoromethyl-pyridin-3-yl)-1,3-dihydro-imidazo[4,5-c]quinolin-2-one]	7.37	7.72
CCOc1cc(-c2ccc3ncc4c(c3c2)n(-c2cccnc2C)c(=O)n4C)cnc1COC [Example 2.28, 8-(5-Ethoxy-6-methoxymethyl-pyridin-3-yl)-3-methyl-1-(2-methyl-pyridin-3-yl)-1,3-dihydro-imidazo[4,5-c]quinolin-2-one]	6.66	7.63
